Test [1] relates to HeLa/Fucci2. In words: Cytotoxicity against human HeLa/Fucci2 cells assessed as reduction in cell growth measured after 3 days by MTT assay. Particulars: HeLa/Fucci2, 72 h. Format: functional, cell-based.
Test [2] is described as follows: Effect on glycolysis in human HeLa/Fucci2 cells assessed as increase in lactate production per ug protein at 0.1 uM incubated for 24 hrs by LDH Assay (reference value: 19.6 +/- 6.2 nmol). It is filed as functional.
A short description of test [3]: Induction of cell cycle duration in human HeLa/Fucci2 cells assessed as increase in G1 phase duration at 5 uM measured every 20 mins for 96 hrs by time-lapse imaging analysis (reference value: 5 +/- 0.8 hrs). Format: functional.
Test [4] can be described thus: Induction of cell cycle duration in human HeLa/Fucci2 cells assessed as increase in G1/S phase duration at 5 uM measured every 20 mins for 96 hrs by time-lapse imaging analysis (reference value: 4.8 +/- 0.3 hrs). It is filed as functional.
The nature of test [5]: Induction of cell cycle duration in human HeLa/Fucci2 cells assessed as increase in S/G2/M phase duration at 5 uM measured every 20 mins for 96 hrs by time-lapse imaging analysis (reference value: 7.1 +/- 0.7 hrs). Format: functional.
Test [6] concerns HeLa/Fucci2. In words: Antiproliferative activity against human HeLa/Fucci2 cells assessed as reduction in cell viability incubated for 48 hrs under glucose-limiting condition by LDH assay. Format: functional, cell-based.
Test [7] has as its system HeLa/Fucci2. In words: Antiproliferative activity against human HeLa/Fucci2 cells reduction in cellular ATP production incubated for 4 hrs by CellTiter-Glo cell viability assay. Format: functional, cell-based. The conditions noted are these: dose 1.3-5 µM. In general terms: Cellular ATP, detected with luciferase, serves as a proxy for viable cell number.
Test [8] is described as follows: Effect on glycolysis in human HeLa/Fucci2 cells assessed as increase in lactate production per ug protein at 5 uM incubated for 24 hrs by LDH Assay (reference value: 19.6 +/- 6.2 nmol). It is filed as functional.
Another test deals with HeLa. In words: Induction of mitochondria membrane potential loss in human HeLa cells at 5 uM measured after 1 hr by JC1 dye based fluorescence microscopic analysis. Format: functional, cell-based.
Test [9] relates to HeLa/Fucci2. In words: Induction of cell cycle duration in human HeLa/Fucci2 cells assessed as increase in G1 phase duration measured every 20 mins for 96 hrs by time-lapse imaging analysis. It is filed as functional, cell-based. The conditions noted are these: dose 1.25-10 µM.
For test [10], the system named is HeLa/Fucci2. In words: Induction of cell cycle duration in human HeLa/Fucci2 cells assessed as increase in G1/S phase duration measured every 20 mins for 96 hrs by time-lapse imaging analysis. Format: functional, cell-based. Particulars: dose 1.25-10 µM.
Test [11] has as its system HeLa/Fucci2. In words: Induction of cell cycle duration in human HeLa/Fucci2 cells assessed as increase in S/G2/M phase duration measured every 20 mins for 96 hrs by time-lapse imaging analysis. Particulars: dose […]. It is filed as functional, cell-based.

Activity calls are given as the source filed them. The calls are words filed in the database; no cut-off is given here.

For `C1=C\CCCCCC[n+]2cccc(c2)CCCCCC/C=C\CCCCCC[n+]2cccc(c2)CCCCCC/1`, in the test with HeLa/Fucci2 [1], the IC50 came out at 2.4 µM.
As to `C=C(C)[C@H]1Cc2c(ccc3c2O[C@@H]2COc4cc(OC)c(OC)cc4[C@@H]2C3=O)O1` [ROTENONE], in test [2], the Activity amounted to 34.5 nmol.
In the case of `C1=C\CCCCCCc2ccc[n+](c2)CCCCCC/C=C\CCCCCCc2ccc[n+](c2)CCCCCCCC/1`, the IC50 in the test with HeLa/Fucci2 [1] was 2.6 µM.
Same read-out and setting: with `C1=C\CCCCCC[n+]2cccc(c2)CCCCCC/C=C\CCCCCC[n+]2cccc(c2)CCCCCCCC/1` the figure was 2.6 µM.
Turning to `C1=C\CCCCCC[n+]2cccc(c2)CCCCCCCCCCCCCC[n+]2cccc(c2)CCCCCC/1.O=C[O-].O=C[O-]`, in the test on HeLa/Fucci2 [1], the IC50 was found to be 1.2 µM. For the same compound, the values for the Time in test [3], in test [4] and in [5] were 12 h, 9.3 h and 14.7 h, respectively. Moreover, the outcome with HeLa/Fucci2 [6] and in the test on HeLa was Active. Moreover, the Activity result was “Dose-dependent effect” in the test on HeLa/Fucci2 [7]; 27.9 nmol in test [8]; “Dose-dependent effect” in the test with HeLa/Fucci2 [9]; “Dose-dependent effect” in the test with HeLa/Fucci2 [10]; “Dose-dependent effect” in the test on HeLa/Fucci2 [11].

A word on the IC50: it is the concentration needed to halve the response being measured.

Source of the values: ChEMBL document CHEMBL5053530, “Neopetrosidines A-D, pyridine alkaloids isolated from the marine sponge Neopetrosia chaliniformis and their cell cycle elongation activity” (Bioorg Med Chem, 2021).
